One may read the Ki as a measure of affinity in units of concentration, obtained from inhibition or displacement. Low values mean tighter binding, high ones weaker binding.

This note sets out measurements from article PMC2492869 (BMC Microbiology, 2008).

SMILES strings stand for the structures.

T1 sequence (Q8G2P8 whole entry, looked up): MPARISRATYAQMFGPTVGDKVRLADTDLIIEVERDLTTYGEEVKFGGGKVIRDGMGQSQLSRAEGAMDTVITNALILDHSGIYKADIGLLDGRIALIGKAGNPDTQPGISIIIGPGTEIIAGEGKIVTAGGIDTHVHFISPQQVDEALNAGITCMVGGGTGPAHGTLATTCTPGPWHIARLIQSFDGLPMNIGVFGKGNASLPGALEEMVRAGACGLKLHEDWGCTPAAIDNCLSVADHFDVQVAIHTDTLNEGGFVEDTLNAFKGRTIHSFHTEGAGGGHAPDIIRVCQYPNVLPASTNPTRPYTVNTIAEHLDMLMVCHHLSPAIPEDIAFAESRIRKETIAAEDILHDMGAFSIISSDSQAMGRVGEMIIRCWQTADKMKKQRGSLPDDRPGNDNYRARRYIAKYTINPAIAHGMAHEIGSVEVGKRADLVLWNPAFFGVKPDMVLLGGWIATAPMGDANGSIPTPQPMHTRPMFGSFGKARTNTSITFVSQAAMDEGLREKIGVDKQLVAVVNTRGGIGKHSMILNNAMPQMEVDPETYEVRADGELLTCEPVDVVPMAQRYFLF

The assay addresses T1, Brucella suis urease (ure-1 operon) (Brucella suis, UniProt Q8G2P8).
T1 construct: gene ureC1
The assay is described as follows: biochemical.
Compound `NC(N)=S` [thiourea] showed an inhibition constant Ki of 26100 ± 2300 µM.
To `CC(=O)NO` [acetohydroxamic acid] belongs 770 ± 60 µM; to `NC(=O)NO` [hydroxyurea], 1040 ± 310 µM.
